Experimental findings from paper PMC8474110 (Journal of Medicinal Chemistry, 2021) are described below.

Each structure is given as a SMILES string. Like-named read-outs stand apart in the source and are kept apart here.

The data set can be described thus: Chemical stability (kinetics of chemical hydrolysis) in buffer solutions. The format is physicochemical. As to conditions: for half-life at 9.1 µM: read-out: t1/2, chemical stability (converted). As for the experimental part: The chemical stability of (±)-1 was evaluated in buffer solutions at pH 1.3 and 7.4 (Table 1).
A 0.02 M phosphate buffer (PBS, pH 7.4) and a 0.02 M hydrochloric buffer (pH 1.3) containing 0.1% (v/v) Cremophor ELP, was used to evaluate chemical stabilities at physiological pHs. The reaction was initiated by adding 1 mL of 10^–4 M stock solution (in acetonitrile) of the compound to 10 mL of thermostated (37 ± 0.5 °C) buffer solution. At established time points, the samples (20 μL) were withdrawn and analyzed by HPLC. Pseudo-first-order rate constants (kobs) for the hydrolysis of the compounds were then calculated considering the slopes of the linear plots of log (% residual compound) against time. The analyses were run in triplicate, and the mean values of the rate constants were calculated.

As to `CCCC(CCC)C(=O)OC(CCCN1CCC(O)(c2ccc(Cl)cc2)CC1)c1ccc(F)cc1` (racemic) [(±)-1], the “Kobs, chemical stability” value (buffer pH 1.3, 37 °C) is reported as 0.007 ± 0.001 h^–1 and the “Kobs, chemical stability” value (buffer pH 7.4, 37 °C) was 0.007 ± 0.001 h^–1. Also, under “buffer solutions at pH 1.3 and 7.4 (both environments)”, the “time the racemate was stable” value was “about 4 days”. The half-life at 9.1 µM (hydrochloric buffer, buffer pH 1.3, 37 °C) is 100 ± 3.1 h and the half-life at 9.1 µM (phosphate buffer, buffer pH 7.4, 37 °C) is 96.4 ± 1.6 h.
